Common to all, as to assay: growth of human tumour cells (NCI), 48 h
For experiment [1], the system named is A549 NSCLC.
The test system of experiment [2] is HT29 colon.
In experiment [3] the test system is HCT-116 colon.
Experiment [4] concerns SNB-75 CNS.
Experiment [5] has as its system IGROV1 ovarian.
In experiment [6] the test system is 786-0 renal.
Experiment [7] has as its system SNB-19 CNS.
For experiment [8], the system named is HOP-92 NSCLC.
In experiment [9] the test system is SN12C renal.
The subject of experiment [10] is MCF7 breast.
Experiment [11] deals with HCC-2998 colon.

Molecules are shown by their SMILES.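 Test compounds were applied to cells in 96-well plates for 48 hours at 5 doses. Here, GI50 denotes the concentration required for 50% inhibition of growth. The concentration for full growth arrest is given as TGI.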 Some results are limits rather than exact numbers.

Regarding `CC(C)(C)c1ccnc(N=C2N=C(Nc3cc(C(C)(C)C)ccn3)c3ccccc32)c1`, the TGI in [1] is 62.3 µM; in [2], 75 µM; in experiment [3], 30.8 µM; in [4], above 100 µM; in experiment [5], 72.1 µM; in experiment [6] it was 43.9 µM. Besides, the values for the TGI in experiment [7], in [8] and in experiment [9] were 44.4 µM, 47.1 µM and above 100 µM, respectively.

For the compound `O=C(C(=C(I)I)c1ccccc1)c1ccccc1`, the TGI in experiment [1] was above 100 µM; in experiment [2] it was above 100 µM; in [3], 36.9 µM; in experiment [5], 44.4 µM; in [7] it was above 100 µM; in experiment [8], 82.9 µM. The TGI in [9] and in experiment [10] was above 100 µM in each case.

Take `C=C1[C@@H]2CCC3[C@]4(C)C(CC[C@@]5(C)C(=O)O[C@H](O)[C@@H]45)[C@H](O)[C@]3(C2)[C@H]1OC1OC(CO)C(O)C(O)C1O` (some centres not stated): the TGI in [1], in experiment [2], in experiment [3], in experiment [4], in experiment [5] and in experiment [6] was above 50 µM in each case. Further, the TGI in experiment [7], in experiment [9] and in experiment [10] was above 50 µM in each case.

As for `CN(C)/N=N/c1nc2c(c(=O)n(C)c(=O)n2C)n1CC1CO1` (configuration not stated), the TGI in [1] came out at 69.4 µM; in experiment [2], 35.1 µM; in experiment [11], 25.3 µM; in [3], 24 µM; in experiment [4] it was 43.6 µM; in experiment [5], 29.9 µM. For the same compound, the TGI in experiment [6] is 57.5 µM; in experiment [7], 78.2 µM; in [9], 46.7 µM; in experiment [10], 26.1 µM.

For `Oc1ccccc1/C=N/N1C(=S)N(C23CC4CC(CC(C4)C2)C3)C(=Nc2ccccc2)C1=Nc1ccccc1`, the TGI in experiment [1], in experiment [2], in experiment [11], in experiment [3], in experiment [5] and in experiment [6] was above 100 µM in each case. Moreover, the TGI in experiment [7], in [8] and in experiment [9] was above 100 µM throughout.

`CCn1ncc2c(=O)n3ncn(-c4ccc(Br)cc4)c3nc21`: the TGI in experiment [1], in [2], in experiment [11], in experiment [3], in experiment [4] and in [5] was above 100 µM in each case. Further, the TGI in experiment [6], in experiment [7], in experiment [9] and in experiment [10] was above 100 µM in each case.

Regarding `O=[N+]([O-])c1ccc(-c2csc(=[N+]3CCCCC3)s2)cc1`, the TGI is above 100 µM in experiment [1]; above 100 µM in experiment [2]; above 100 µM in experiment [11]; above 100 µM in [3]; above 26.5 µM in experiment [4]; above 100 µM in [5]. Further, the TGI in experiment [6] was above 100 µM; in [7], above 100 µM; in [8], 64.9 µM; in [9], above 100 µM.

In the case of `O=C(c1ccco1)N(C(=O)N1CCC(c2ccccc2)CC1)c1ccccc1`, the TGI in [2] was above 100 µM; in [3], above 100 µM; in [4] it was 46.2 µM; in experiment [5], above 100 µM; in experiment [6], above 100 µM; in [7] it was above 100 µM. The TGI in experiment [9] and in experiment [10] was above 100 µM each time.

With `COc1ccc(C2C=C(c3ccc(C)cc3)N(c3ccc(OC)cc3[N+](=O)[O-])C3C(=O)OC(=O)C23)c(OC)c1` (configuration not stated), the TGI was above 100 µM in experiment [1]; 86.4 µM in experiment [2]; 79.4 µM in [11]; above 100 µM in experiment [3]; 75.9 µM in experiment [4]; 58.1 µM in experiment [5]. Further, the TGI in [6], in experiment [7] and in [10] was above 100 µM throughout.

Consider `C=C(C)[C@H]1CC23C(=O)[C@@](C)(C[C@H]2C1(C)C)C(=O)C(C(=O)C(C)C)=C3O`, for which the TGI in experiment [1] was 57.9 µM; in [2], 26.4 µM; in [5], 32.7 µM; in experiment [6], 35 µM; in [7], 69.7 µM; in [9], 32.9 µM. In experiment [10], this compound showed a TGI of 32.6 µM.

As to `NCCCCNCCCN1CCOC1=O`, the TGI in experiment [1], in [2], in experiment [11], in experiment [3], in experiment [4] and in [5] was above 100 µM each time. The TGI in [6], in experiment [7], in experiment [9] and in [10] was above 100 µM throughout.

As for `CSc1ncc2c(n1)-c1ccccc1OC2NC1CC1` (configuration not stated), the TGI in experiment [1], in experiment [2], in experiment [3], in experiment [4], in [5] and in experiment [6] was above 100 µM in each case. The TGI in experiment [7], in experiment [8], in experiment [9] and in experiment [10] was above 100 µM each time.

Consider `C=C1C[C@@H]2O[C@H]3[C@H]4[C@@H](C[C@@H](C)[C@@H](OC(C)=O)[C@H]42)[C@@H](C)CO[C@@]3(C)[C@H](OC(=O)CCCCCCC)CC1=O`, for which the TGI in experiment [1] was 35.2 µM; in experiment [2], above 100 µM; in [11] it was 30.8 µM; in experiment [3] it was 32 µM; in experiment [4] it was 24.8 µM; in experiment [5], 48.4 µM. In addition, the TGI is 29.1 µM in [6], above 100 µM in experiment [7], 30.2 µM in experiment [9] and 35.9 µM in experiment [10].

Turning to `C/C(=C\CSCC(N)C(=O)O)CC/C=C(\C)CNc1ccccc1` (configuration not stated), the TGI in experiment [1], in experiment [2], in experiment [11], in experiment [3], in experiment [4] and in [5] was above 100 µM each time. Also, the TGI in experiment [6], in [7], in experiment [9] and in experiment [10] was above 100 µM each time.

Take `CCCCNC(=O)Cn1c2ccc(Br)cc2c2nc3ccccc3nc21`: the TGI in experiment [1], in experiment [2], in experiment [3], in [4], in [5] and in experiment [6] was above 100 µM in each case. Moreover, the TGI in experiment [7], in experiment [8] and in experiment [9] was above 100 µM throughout.

Consider `CC(=O)/C(=N\Nc1ccc(Cl)cc1)C(C)=Nc1ccc(C)cc1`, for which the TGI in [1] is above 100 µM; in [2] it was 61.3 µM; in experiment [3], above 100 µM; in experiment [4] it was above 100 µM; in [5], above 100 µM; in experiment [6], above 100 µM. For the same compound, the TGI was above 100 µM in experiment [7], 37.4 µM in [8] and above 100 µM in [9].

Take `N#C/C(C(=O)NCc1ccccc1)=C(/N)N1CCCC1`: the TGI in experiment [1], in experiment [2], in experiment [11], in [3], in [5] and in [6] was above 100 µM in each case. Further, the TGI in experiment [7], in [8] and in experiment [9] was above 100 µM each time.

For the compound `O=C([C@H](O)[C@@H](O)c1cccc(Cl)c1)C12CC3CC(CC(C3)C1)C2`, the TGI in [1] is 5.25 µM; in experiment [2], 6.17 µM; in [11] it was 4.15 µM; in [3], 6.79 µM; in [4], 3.7 µM; in experiment [5], 2.68 µM. In addition, the TGI in [6] was 3.3 µM; in [7], 4.07 µM; in experiment [9] it was 3.95 µM; in experiment [10], 2.77 µM.

As to `CC[C@]12C=CCN3CCC4(c5cc([C@@]6(C(=O)OC)CC7CN(CCc8c6[nH]c6ccccc86)CC6CCCCC67)c(OC)cc5N(C)C4[C@](O)(C(=O)OC)C1OC(C)=O)[C@@H]32` (some centres not stated), the TGI in [1] is 12.6 µM; in experiment [2] it was below 0.01 µM; in experiment [11], below 0.01 µM; in experiment [3], 0.0631 µM; in [5], 0.651 µM; in experiment [6], 11 µM. In addition, the values for the TGI in experiment [7], in [8] and in experiment [9] were 15.4 µM, 1.5 µM and 17.5 µM, respectively.

Turning to `O=C1c2cc3c(cc2-c2c1c1ccc(Cl)cc1c(=O)n2CCCn1ccnc1)OCO3`, the GI50 was 0.0136 µM in [1]; 0.0174 µM in experiment [2]; 0.0737 µM in experiment [11]; below 0.01 µM in experiment [3]; 0.0107 µM in experiment [4]; 0.0656 µM in experiment [5]. Further, the figures for the GI50 in experiment [8] and in [9] were 0.0229 µM and below 0.01 µM, respectively. The TGI is above 100 µM in experiment [1]; above 100 µM in experiment [2]; above 100 µM in experiment [11]; 11 µM in [3]; 4.14 µM in experiment [4]; above 100 µM in experiment [5]. The TGI in experiment [8] was 0.491 µM; in [9] it was above 100 µM.

Turning to `O=C1CC[C@@]23CC(=O)O[C@@H]2CCCC3C1` (some centres not stated), the TGI in experiment [1], in experiment [2], in experiment [11], in experiment [3], in [4] and in experiment [5] was above 100 µM throughout. Moreover, the TGI in experiment [6], in experiment [7], in experiment [9] and in [10] was above 100 µM in each case.

`CN(C)CCCNC(=O)N/N=C/c1ccccc1`: the TGI in experiment [1], in experiment [2], in experiment [3], in experiment [4], in [5] and in experiment [7] was above 100 µM in each case. This compound gave a TGI in experiment [9] above 100 µM.

For the compound `CC/C=N\N1C(N)=C(C#N)C(C#N)(C#N)C1CC` (configuration not stated), the TGI in experiment [1] is above 100 µM; in experiment [2], 86.4 µM; in [11], above 100 µM; in experiment [3], above 100 µM; in [4] it was above 100 µM; in [5], above 100 µM. For the same compound, the TGI in experiment [6], in [7], in [9] and in experiment [10] was above 100 µM throughout.

As for `CCC1(CC)C(=O)N(C(=O)c2cc(OC)c(OC)c(OC)c2)N(C(=O)c2cc(OC)c(OC)c(OC)c2)C1=O`, the TGI in [1], in experiment [2], in [11], in [3], in experiment [4] and in [5] was above 50 µM in each case. For the same compound, the TGI in [6], in [7], in [9] and in [10] was above 50 µM each time.

As for `CCOC(=O)c1c(-c2ccccc2)c(OC)cn1C`, the TGI in [1], in experiment [2], in [11], in [3], in [4] and in experiment [5] was above 10 µM each time. Further, the TGI in [6], in experiment [7], in experiment [9] and in experiment [10] was above 10 µM in each case.

For `O=C(NC(C(F)(F)F)(C(F)(F)F)P(=O)(Cc1ccccc1)Cc1ccccc1)C(C(F)(F)F)C(F)(F)F`, the TGI is 68.3 µM in [1]; 45.4 µM in experiment [2]; 49.8 µM in [11]; 33.1 µM in experiment [3]; 36.1 µM in experiment [5]; 34.4 µM in [6]. Further, the TGI in experiment [7] turned out to be 59.4 µM; in [9] it was 38.4 µM; in experiment [10] it was 31.8 µM.

`CCOC(=O)c1c(SCc2cc(=O)[nH]c(=O)[nH]2)n(-c2ccccc2)c(=S)n(-c2ccccc2)c1=O`: the TGI in experiment [1], in [2], in [11], in [3], in experiment [4] and in [5] was above 100 µM each time. Moreover, the TGI in [6], in experiment [7], in experiment [9] and in experiment [10] was above 100 µM throughout.

Values taken from PubChem BioAssay (NCI).
